Source: patent publication US9326513B2, “Fungicidal compositions” (Syngenta Participations AG, priority 2011, dated 2016)

Tests used:
Type in all cases: in vivo
Conditions in all cases: foliar, compared to untreated control leaf disks, read-out: disease control
Pyrenophora teres = Pyrenophora teres / barley / leaf disc preventative (net blotch)
From the text: Pyrenophora teres/Barley/Leaf Disc Preventative (Net Blotch) Barley leaf segments cv. Hasso were placed on agar in a multiwell plate (24-well format) and sprayed with the formulated test compound diluted in water. The leaf segments were inoculated with a spore suspension of the fungus 2 days after application.

[1] = test system: Blumeria graminis f. sp. tritici (Erysiphe graminis f. sp. tritici); assay: Blumeria graminis f. sp. tritici / wheat / leaf disc preventative (powdery mildew on wheat)
In short: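 Preventative leaf-disc test: compound (200 ppm) was sprayed onto cv. Kanzler wheat segments, which were dusted with conidia from infected plants 1 day after application. After incubation at 20° C and 60% rh, disease control relative to untreated segments was rated 6-8 days after application.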

[2] = test system: Puccinia recondita f. sp. tritici; assay: Puccinia recondita f. sp. tritici / wheat / leaf disc curative (brown rust)
Protocol: Puccinia recondita f. sp. tritici/Wheat/Leaf Disc Curative (Brown Rust) Wheat leaf segments cv. Kanzler are placed on agar in multiwell plates (24-well format). The leaf segments are inoculated with a spore suspension of the fungus. Plates were stored in darkness at 19° C. and 75% rh. The formulated test compound diluted in water was applied 1 day after inoculation.

[3] = test system: Puccinia recondita f. sp. tritici; assay: Puccinia recondita f. sp. tritici / wheat / leaf disc preventative (brown rust)
From the text: Puccinia recondita f. sp. tritici/Wheat/Leaf Disc Preventative (Brown Rust) Wheat leaf segments cv. Kanzler were placed on agar in multiwell plates (24-well format) and sprayed with the formulated test compound diluted in water. The leaf disks were inoculated with a spore suspension of the fungus 1 day after application.

Measured: pest or weed control at 200 ppm

CCN(C)/C=N/c1cc(Br)c(OC(C)c2ccc(F)c(F)c2)nc1C (stereo not drawn) [Q.204]
≥ 50%: all assays above

CCN(C)/C=N/c1cc(Br)c(OC2CCC3CCCCC3C2)nc1C (stereo not drawn) [Q.027]
≥ 50%: all assays above

CCN(C)/C=N/c1cc(Br)c(OC2CCSCC2)nc1C [Q.158]
≥ 50%: all assays above

CCN(C)/C=N/c1cc(Br)c(OCc2cccc(F)c2)nc1C [Q.176]
≥ 50%: all assays above

C=Cc1cccc(COc2nc(C)c(/N=C/N(C)CC)cc2Br)c1 [Q.277]
≥ 50%: all assays above

CCN(C)/C=N/c1cc(Br)c(OC(C)c2ccncc2)nc1C (stereo not drawn) [Q.117]
≥ 50%: all assays above

CCN(C)/C=N/c1cc(Br)c(OCCCc2ccc(OC)cc2)nc1C [Q.014]
≥ 50%: all assays above

CCN(C)/C=N/c1cc(Br)c(OC(C)c2ccc3c(c2)CCCC3)nc1C (stereo not drawn) [Q.238]
≥ 50%: all assays above

CCN(C)/C=N/c1cc(Br)c(OC(C)c2cccc(CCc3ccccc3)c2)nc1C (stereo not drawn) [Q.329]
≥ 50%: all assays above

CCN(C)/C=N/c1cc(Br)c(OC2CCC(OC(=O)C(C)C)CC2)nc1C (stereo not drawn) [Q.211]
≥ 50%: all assays above

CCN(C)/C=N/c1cc(Br)c(OCc2ccc(C(F)(F)F)nc2)nc1C [Q.136]
≥ 50%: all assays above

CCN(C)/C=N/c1cc(Br)c(OC2CCN(C(C)=O)CC2)nc1C [Q.160]
≥ 50%: all assays above

CCN(C)/C=N/c1cc(Br)c(OCc2ccc3ncccc3c2)nc1C [Q.209]
≥ 50%: all assays above

CCN(C)/C=N/c1cc(Br)c(OCc2snc(-c3ccc(F)cc3)c2Cl)nc1C [Q.124]
≥ 50%: all assays above

CCN(C)/C=N/c1cc(Br)c(OCCc2ccccc2)nc1C [Q.099]
≥ 50%: all assays above

CCN(C)/C=N/c1cc(Br)c(OC(C)c2ccccc2F)nc1C (stereo not drawn) [Q.299]
≥ 50%: all assays above

CCN(C)/C=N/c1cc(Br)c(OCC2CCc3ccccc3C2)nc1C (stereo not drawn) [Q.224]
≥ 50%: all assays above

CCN(C)/C=N/c1cc(Br)c(OC2Cc3ccc(C#N)cc3C2)nc1C (stereo not drawn) [Q.376]
≥ 50%: all assays above

CCN(C)/C=N/c1cc(Br)c(OC2CCN(S(=O)(=O)N(C)C)CC2)nc1C [Q.164]
≥ 50%: all assays above

CCN(C)/C=N/c1cc(Br)c(OCCCC(C)F)nc1C (stereo not drawn) [Q.052]
≥ 50%: all assays above

CCN(C)/C=N/c1cc(Br)c(OCc2ccc(Cl)cc2)nc1C [Q.097]
≥ 50%: all assays above

CCN/C=N/c1cc(Br)c(OCCCC(C)C)nc1C [Q.004]
≥ 50%: all assays above

CCN(C)/C=N/c1cc(Br)c(OCCc2ccc(Br)cc2)nc1C [Q.012]
≥ 50%: all assays above

CCN(C)/C=N/c1cc(Br)c(OC2CCc3ccc(OC)cc3C2)nc1C (stereo not drawn) [Q.018]
≥ 50%: all assays above

CCN(C)/C=N/c1cc(C(C)C)c(OC(C)c2cc(F)cc(F)c2)nc1C (stereo not drawn) [Q.280]
≥ 50%: all assays above

CCN(C)/C=N/c1cc(Br)c(OC(C)(C)c2cc(C)no2)nc1C [Q.076]
≥ 50%: all assays above

CCN(C)/C=N/c1cc(Br)c(OC2CCN(S(C)(=O)=O)CC2)nc1C [Q.163]
≥ 50%: all assays above

C/C=C(\C)CCCOc1nc(C)c(/N=C/N(C)CC)cc1Br [Q.133]
≥ 50%: all assays above

CCC(C)Oc1nc(C)c(/N=C/N(C)CC)cc1Br (stereo not drawn) [Q.389]
≥ 50%: all assays above

CCN(C)/C=N/c1cc(Br)c(OC2CCC(C)C(C)CC2)nc1C (stereo not drawn) [Q.308]
≥ 50%: all assays above

CCN(C)/C=N/c1cc(Br)c(OCC2CCCC(C#N)C2)nc1C (stereo not drawn) [Q.032]
≥ 50%: all assays above

CCN(C)/C=N/c1cc(C(F)F)c(O[C@H]2CC[C@@H](C(C)C)CC2)nc1C [Q.247]
≥ 50%: all assays above

CCN(C)/C=N/c1cc(Br)c(OC2CCc3c(cccc3OC)C2)nc1C (stereo not drawn) [Q.019]
≥ 50%: all assays above

CCCc1cccc(C(C)Oc2nc(C)c(/N=C/N(C)CC)cc2Br)c1 (stereo not drawn) [Q.344]
≥ 50%: all assays above

CCN(C)/C=N/c1cc(Br)c(OCCCCc2ccccc2)nc1C [Q.148]
≥ 50%: all assays above

CC(=O)N1CCC(Oc2nc(C)c(/N=C/N(C)C)cc2Br)CC1 [Q.055]
≥ 50%: all assays above

CCN(C)/C=N/c1cc(Br)c(OCc2ccns2)nc1C [Q.143]
≥ 50%: all assays above

C=CCCC(C)Oc1nc(C)c(/N=C/N(C)CC)cc1Br (stereo not drawn) [Q.220]
≥ 50%: all assays above

CCN(C)/C=N/c1cc(Br)c(OC2CCC(=C(C)C)CC2)nc1C (stereo not drawn) [Q.122]
≥ 50%: all assays above

CCN(C)/C=N/c1cc(Br)c(OCc2ccccc2C(F)F)nc1C [Q.289]
≥ 50%: all assays above

CCN(C)/C=N/c1ccc(O[C@H]2CC[C@H](CC)CC2)nc1C [Q.380]
≥ 50%: all assays above

CCN(C)/C=N/c1cc(Br)c(OC2CCc3ccc(/C(C)=N/OC)cc3C2)nc1C (stereo not drawn) [Q.039]
≥ 50%: all assays above
